Measured values reported in patent US20040209318A1, “Reagents and methods for the detection and quantification of vancomycin in bilogical fluids” (priority 1995, published 2004).
pKd: −log10 of the molar value. Read-outs that look alike come from different tables or passages of the source.

Key:
[1] = molecular target: anti-vancomycin Fab fragment; experiment: BIAcore solution competition, equilibrium dissociation constant; assay type: binding, mouse
Procedure: Biosensor surfaces were regenerated after each injection with successive 1 minute pulses of 6 M, 6M, and 1.5 M guanidine hydrochloride. Initial rates of binding of anti-vancomycin Fab fragment to the biosensor surface were measured over a 15 second window beginning 20 seconds postinjection. Data was evaluated by non-linear regression analysis using the solution affinity model built into BIAevaluation 3.0 software (BIAcore, Inc).
The binding affinities of several vancomycin analogs and tracers for anti-vancomycin Fab fragment were determined from solution competition experiments carried out on a BIAcore 2000. Initially, known concentrations of anti-vancomycin Fab fragment (0-22 nM) were injected over the aminoalkyl vancomycin biosensor surface. The initial rate of binding for each anti-vancomycin Fab fragment concentration was obtained by averaging the observed binding rate over a […] window beginning 20 seconds post injection. Data from the first 20 seconds of each sensorgram were omitted due to sample dispersion effects at the start of injections. A plot of initial binding rate versus concentration of anti-vancomycin Fab fragment was fit using a 4-parameter logistic (general model in BIAevaluation 3.0) providing a standard curve. […] A fixed concentration of anti-vancomycin Fab fragment (20 nM) was then mixed with twelve concentrations of each vancomycin analog or tracer and allowed to reach equilibrium. The equilibrium mixtures were individually injected over the aminoalkyl vancomycin biosensor surface, and the concentration of free anti-vancomycin Fab fragment remaining was quantitated by determination of the initial rate of binding to the biosensor surface as described above. A plot of free anti-vancomycin Fab fragment versus total concentration of added analog or tracer provides a competition curve. […] The data points represent the experimentally determined concentrations of free anti-vancomycin Fab fragment in equilibrium solutions at a given concentration of soluble analog or tracer. The curves represent the best nonlinear fit of the data using equation 1 (solution affinity model in BIAevaluation software) below: [formula]
where Fabτ is the concentration of free anti-vancomycin Fab fragment in equilibrium solutions, Fabτ is the total concentration of anti-vancomycin Fab fragment in solution (20 nM), A is the total concentration of added vancomycin analog or tracer, and KD is the equilibrium dissociation constant for the binding of the vancomycin analog or tracer to anti-vancomycin Fab fragment in solution.

[2] = 0.5 μM
Procedure: (§1) Briefly, a continuous flow of HBS buffer at 10 μL/minute was initiated over the biosensor surface. The carboxymethylated dextran matrix on the sensor surface was activated by a 3.5 minute injection of a solution of 0.05 M HNS and 0.2 M EDAC. […] Blank surfaces were generated under identical conditions omitting the ligand immobilization step.
For these studies, an (N^ε-acetyl)KDADA tripeptide containing an aminocaproate linker from the amino terminus was immobilized via amine coupling to an activated carboxymethyl dextran surface of a CM-5 sensor chip.

[3] = system: anti-vancomycin Fab fragment; conditions: substance immobilized on CM-5 sensor chip
Procedure: as §1
Initial attempts to generate a biosensor surface involved immobilization of vancomycin to the activated carboxymethyl dextran surface of a CM-5 sensor chip through the primary amine of the vancosamine sugar moiety.

[4] = cited from earlier work

Compound: CN[C@H](CC(C)C)C(=O)N[C@H]1C(=O)N[C@@H](CC(N)=O)C(=O)N[C@H]2C(=O)N[C@H]3C(=O)N[C@H](C(=O)N[C@H](C(=O)O)c4cc(O)cc(O)c4-c4cc3ccc4O)[C@H](O)c3ccc(c(Cl)c3)Oc3cc2cc(c3O[C@@H]2O[C@H](CO)[C@@H](O)[C@H](O)[C@H]2O[C@H]2C[C@](C)(N)[C@H](O)[C@H](C)O2)Oc2ccc(cc2Cl)[C@H]1O [vancomycin (1), vancomycin]
- pKd ([1]; in solution, 20 nM Fab fragment, read-out: Equilibrium Dissociation Constant (KD)): ≥ 9.70
- pKd ([1]; in the presence of (Nα,Nε-diacetyl)KDADA tripeptide (500 μM), read-out: KD): ≥ 9.70
- instrumental response at equilibrium [2]: approximately 50 Rus
- binding capacity (Rumax) of biosensor surface [3]: minimal binding capacity
- half life ([4]; normal patients): 5 to 11 h
- half life ([4]; patients with renal insufficiency): 48 to 120 h
